Patent US20090105461A1, “Calicheamicin conjugates” (priority 2004, published 2009)

Columns and labels:
[1] = tested on: L2987 lung carcinoma xenografts; test: L2987 lung carcinoma xenografts; format: in vivo, nude mice; conditions: 0.375 to 3 μg/dose/mouse, Q4DX3 i.p.
Method: (§1) The efficacy in vivo of CMD-193 was tested on subcutaneous xenografts from gastric (N87), lung (L2987), cervical/epidermoid (A431/Le^y) and colon (LS174T and LOVO) carcinomas. Unless indicated otherwise, all conjugates and controls were injected intraperitoneally according to Q4DX3 schedule. To monitor for tumor targeting due to the carrier function of immunoglobulin, CMA was used as a negative control. Based on the studies described below, a dosage of 15 mg/kg of CMD-193 (equivalent to a conjugated antibody protein dosage in the range of 562 to 803 mg/m^2) was considered to be the minimum efficacious dose (MED).
Mice bearing L2987 xenografts of 100 mm^3 were treated with a control conjugate (CMA), PBS or CMD. Mice in each group received three doses i.p. The amount of each dose in calicheamicin equivalents is specified in the legends. Conjugates and controls were injected at day 1, 5 and 9. […] The error bars represent the standard deviation of the average tumor volume at each time point. The number of mice (expressed as a percentage) with a tumor size smaller than the initial tumor average of each group was plotted as a function of the observation period in FIG. 12. Treatment with CMA (FIG. 12A) or CMD (FIG. 12B) is compared to treatment with vehicle control (PBS).
For the experiment shown in FIG. 13, 10 mice received L2987 xenografts. […]

[2] = tested on: LOVO colon carcinoma xenografts; test: LOVO colon carcinoma xenografts; format: in vivo, nude mice; conditions: for tumor inhibition of LOVO xenografts: hu3S193-AcBut-CM experiments (FIGS. 5, 6)
Method: (§2) The efficacy in vivo of hu3S193-AcBut-CM was tested on subcutaneous xenografts from gastric (N87, FIG. 3), prostate (LNCaP, FIG. 4) and colon (LOVO, FIGS. 5 and 6) carcinomas. Subcutaneous tumors of N87, LOVO and LNCaP were grown in athymic nude mice (Charles River, Wilmington, Mass.). Female mice of 1.5 to 3 months old were injected with respectively 5×10^6 N87 or 10^7 LOVO cells per mouse. LNCaP cells were injected in male nude mice that were 3 months old. To grow tumors, N87 and LNCaP cells had to be mixed (1:1, vol/vol) with […]® (Collaborative Biomedical Products, Belford, Mass.) prior to injection. Two perpendicular diameters of the tumor were measured at least once a week by means of calipers. The tumor volume was calculated according to the formula of Attia & Weiss: A^2×B×0.4.
Unless indicated otherwise, 3 doses of each conjugate and control were given intraperitoneally with an interval of 4 days (Q4Dx3). In vivo, hu3S193-AcBut-CM inhibited tumor growth in these three separate models. Hu3S193-AcBut-CM cured mice from gastric carcinoma xenografts (N87) having high expression of Lewis Y antigen (FIG. 3). […] In the LOVO model, the efficacy of hu3S193-AcBut-CM was improved by increasing the amount of the conjugate (FIG. 5).
Mice bearing LOVO xenografts of 100 mm^3 were treated with control conjugates (RITUXAN-AcBut-CM, FIG. 5A), PBS (FIGS. 5A and 5B), hu3S193 (FIG. 5B) or hu3S193-AcBut-CM (FIG. 5B). Except for the group treated with Hu3S193-AcBut-CM at 4 μg/dose, mice in each group received three doses i.p. The amount of each dose in calicheamicin equivalents is specified in the legend. Conjugates and controls were injected at day 1, 5 and 9. The groups were designated as follows: hu3S193-AcBut-CM, received an additional regimen of three doses at day 43, 47 and 51. The number of mice per group (n) is reported in C. Differences in tumor size at day 30 were probed for statistical significance by a 2-tailed Students t-test.
Mice bearing LOVO xenografts of 100 mm^3 were treated with control conjugates: RITUXAN-AcBut-CM and CMA (FIG. 6A), PBS or hu3S193-AcBut-CM (FIG. 6B). Mice in each group received three or four doses i.p. The amount of each dose in calicheamicin equivalents is specified in the legend. Conjugates and controls were injected at day 1, 5 and 9. The group designated: hu3S193-AcBut-CM*, received an additional dose at day 13. The number of mice per group equals n and p-values of a 2-tailed Students t-test were determined.
Mice bearing LOVO xenografts were tested to investigate the potential benefits of regimens different from 4 μg cal.eq./dose/mouse at Q4DX3. Mice bearing LOVO xenografts of approximately 100 mm^3 were treated with PBS, G193 or various regimens of a control conjugate CMA or CMD. The amount of each dose in calicheamicin equivalents is specified in the legends. The LOVO-model was chosen for this type of experiment because of the marginal efficacy seen with 4 μg cal.eq. at Q4DX3.

[3] = tested on: LS174T colon carcinoma xenografts; test: LS174T colon carcinoma xenografts; format: in vivo, nude mice
Method: as §1
Mice bearing LS174T xenografts of 150 mm^3 were treated with a control conjugate (CMA), PBS or CMD. Mice in each group received three doses i.p. The amount of each dose in calicheamicin equivalents is specified in the legends. Conjugates and controls were injected at day 1, 5 and 9. LS174T tumors proliferated so fast that in the control group all the mice had to be killed within a 51-day period because of the large tumor burden (>2.5 cm^3). In the group treated with 4 ug cal.eq. CMD (Q4DX3), 3 out of five mice were killed within 44 days because of a large tumor burden (1/3) or because of necrosis of the tumor (2/3). Of the other two mice one remained tumor-free for 125 days while the other one had developed a small tumor. […] CMD (Q4DX3) or 4 ug cal.eq CMA (Q4DX3). […]

[4] = tested on: MX1 breast carcinoma xenografts; test: MX1 breast carcinoma xenografts; format: in vivo, nude mice; conditions: MX1, at least 35 days
Method: The effect of CMD-193 on the growth of established xenografts of carcinomas that had low expression of the Lewis Y antigen was also examined in MX1 breast carcinoma. CMA-676 was used as a nonbinding control conjugate. Nude mice explanted with MX1 breast carcinoma were treated with various dosages of CMD-193 (40 to 240 mg/kg) or CMA-676 (a negative control). Tumor growth was recorded for at least 35 days. In contrast, CMA-676 was effective only at the highest dosages (160 mg/kg) tested.

[5] = tested on: N87 gastric carcinoma xenografts; test: N87 gastric carcinoma xenografts; format: in vivo, nude mice; conditions: 150 mm^3 xenografts
Method: (§3) The antitumor efficacy of calicheamicin conjugated to anti-Lewis Y antibodies was evaluated against human carcinoma xenografts established subcutaneously (SC) in nude mice. The evaluated xenografts included carcinomas that had either high or low expression of the Lewis Y antigen and carcinomas from breast, colon, lung, and prostate. Mice bearing solid tumors with an average mass of 150 to 300 mg were randomized to various treatment groups.
as §2
Unless indicated otherwise, 3 doses of each conjugate and control were given intraperitoneally with an interval of 4 days (Q4Dx3). […]

[6] = tested on: HL-60 promyelocytic leukemia cells; conditions: HL-60 leukemia cells
[7] = tested on: human carcinoma xenografts; test: Human carcinoma xenografts in nude mice (all models); format: in vivo; conditions: doses equivalent to hu3S193-AcBut-CM; earlier experiments, data not shown
Method: as §3, §1

Molecule	growth of L2987 xenografts [1]	efficacy on LOVO xenografts ([2]; CMD experiment (FIG. 18))	tumor inhibition of LOVO xenografts [2]	cures ([3]; 2 ug cal.eq. Q4DX3)	cures ([3]; 4 ug cal.eq. Q4DX3)	lowest dosage with significant growth inhibition [4] [mg/kg]	growth inhibition versus hu3S193-AcBut-CM or CMD at equivalent doses [5]	period of statistically significant difference in tumor size from PBS ([2]; 2 μg cal.eq. per mouse Q4Dx3) [days]	period of statistically significant difference in tumor size from PBS ([2]; 4 μg cal.eq. per mouse Q4Dx3) [days]	metabolites produced [6]	tumor inhibition by free CM [7]	major biotransformation pathways (cytosol)	metabolites after incubation (human liver microsomes and cytosol)	biotransformation pathways (microsomes)
CMA-676: calicheamicin conjugate of an anti-CD33 antibody, used as control conjugate	significant growth inhibitory effect	lack of efficacy	negligible tumor inhibition	one out of the five	No cures	160	inhibited growth significantly less							
RITUXAN-AcBut-CM: calicheamicin-conjugate of RITUXAN (anti-CD20), control conjugate			negligible tumor inhibition					16	16					
CCN(C(C)=O)[C@H]1CO[C@@H](O[C@H]2[C@H](O[C@H]3C#C/C=C\C#C[C@]4(O)CC(=O)C(NC(=O)OC)=C3/C4=C\CSSC(C)(C)CC(=O)NN)O[C@H](C)[C@@H](NO[C@H]3C[C@H](O)[C@H](SC(=O)c4c(C)c(I)c(O[C@@H]5O[C@@H](C)[C@H](O)[C@@H](OC)[C@H]5O)c(OC)c4OC)[C@@H](C)O3)[C@@H]2O)C[C@@H]1OC [CM, N-acetyl gamma calicheamicin dimethyl hydrazide]										Several metabolites, including NAc-epsilon calicheamicin and its isomer	never inhibited	formation of NAc-epsilon calicheamicin and it's derivatives	Many metabolites were found	hydroxylation and demethylation
